Experimental data: US12139558B2, “Method of manufacturing a pharmaceutical composition” (Ferring B.V., priority 2017, dated 2024)
Starred links: 1 amine or outer side, 2 acyl side, 3 side chain; linkers in the order of their positions; H or OH if unused. Positions of bridges follow the written chain, without caps; N, C: chain ends. Residues, ends and D or L forms follow the SMILES beside them. X1 = O=C(CCC[*:2])[*:1]

How the values were obtained:
[1] = type: physicochemical
Description: The next day the solids were analysed by HPLC for purity and assay (FIG. 3b), TG/DTA for ease of mass loss/thermal events (FIG. 4b) as well as polarised light microscopy (PLM) and XRPD for morphology and crystalline content. […] These mass losses correspond to weakly surface bound acetonitrile and water, and are not indicative of any solvation of the crystal form itself.

[2] = Gravimetric vapour sorption (GVS) of crystals; type: physicochemical; conditions: 25° C.
Description: Gravimetric vapour sorption (GVS) was performed on an SMS DVS-1. 1.4 mg of crystals and powder were added into an Al pan and exposed to stepwise relative humidity (RH) changes during two consecutive cycles: 20-30-40-50-60-70-80-70-60-50-40-30-20-10-0-10-20-30-40-50-60-70-80-90-80-70-60-50-40-30-20-10-0% RH in an open loop mode. The temperature was maintained at 25° C. and pure nitrogen flow rate of 200 ml/min was used. The dm/dt criteria applied was 0.001 weight-%/min during a 5 minute window, with a maximum time of 150 minutes for all steps, with the exception of steps at 0% RH that were set to 6 hours.

[3] = system: Prader-Willi Syndrome patients; conditions: after 15 days, vs placebo treated patients; cited from earlier work

With `CC[C@H](C)[C@@H]1NC(=O)[C@H](Cc2ccc(OC)cc2)NC(=O)CCCSC[C@@H](C(=O)N2CCC[C@H]2C(=O)N[C@@H](CC(C)C)C(=O)NCC(N)=O)NC(=O)[C@H](CC(N)=O)NC(=O)[C@H](CCC(N)=O)NC1=O` [Form II, carbetocin] (Y(Me)IQNCPLG-NH2; linker N-5 via X1) the “total mass loss (TG/DTA)” value ([1]; up to 110° C., crystals of Example 4, FIG. 4b) was “approximately 0.8%”, the “first mass loss (TG/DTA)” value ([1]; up to approximately 60° C., weakly surface bound acetonitrile and water) was “approximately 0.5%” and the “second mass loss (TG/DTA)” value ([1]; up to approximately 110° C., weakly surface bound acetonitrile and water) was “approximately 0.3%”.

In the case of `CC[C@H](C)[C@@H]1NC(=O)[C@H](Cc2ccc(OC)cc2)NC(=O)CCCSC[C@@H](C(=O)N2CCC[C@H]2C(=O)N[C@@H](CC(C)C)C(=O)NCC(N)=O)NC(=O)[C@H](CC(N)=O)NC(=O)[C@H](CCC(N)=O)NC1=O` [Form III, carbetocin] (Y(Me)IQNCPLG-NH2; linker N-5 via X1), the “GVS isotherm plateau (monohydrate plus some loosely bound surface water)” value ([2]; crystals of Example 5, FIG. 8b) was “around 2 % (w/w)”, the “GVS second plateau, additional (pentahydrate with some loosely bound surface water)” value ([2]; crystals of Example 5, FIG. 8b) was “approximately 8 % (w/w)” and the “relative humidity at which the pentahydrate exists” value ([2]; sorption) was no less than 60 % RH.

In the case of `CC[C@H](C)[C@@H]1NC(=O)[C@H](Cc2ccc(OC)cc2)NC(=O)CCCSC[C@@H](C(=O)N2CCC[C@H]2C(=O)N[C@@H](CC(C)C)C(=O)NCC(N)=O)NC(=O)[C@H](CC(N)=O)NC(=O)[C@H](CCC(N)=O)NC1=O` [carbetocin, 1-butanoic acid-2-(O-methyl-L-tyrosine)-1-carbaoxytocin] (Y(Me)IQNCPLG-NH2; linker N-5 via X1), the “improvement over placebo in measurements of hyperphagia, obsessive compulsive disorder, food seeking behaviour and clinical global impression” value [3] is listed as “statistically significant improvement over placebo treated patients”.
